Earlier results in US10188593B2, “Polysaccharide delivery particle” (Spray-Tek, Inc., priority 2016, dated 2019).

Conditions: perfume oil ingredients

Row | SMILES | Octanol/water Partition Coefficient (logP)
1 | CC=Cc1ccc(O)c(OC)c1 [Isoeugenol] | 1.85
2 | C=CC(C)(O)CCC=C(C)C (centres unmarked) [Linalool] | 2.44
3 | CCOC(=O)C(C)CC (centres unmarked) [Ethyl_2-methylbutyrate] | 1.91
4 | C=CCOC(=O)COCCC(C)C [Allyl_amyl_glycolate] | 2.81
5 | C=C(C)[C@H]1CC=C(C)CC1 [d-Limonene] | 4.38
6 | CC(C)=CCCC(C)CCO (single isomer, unassigned; (-)) [(−)-Citronellol] | 2.76
7 | CCOc1cc(C=O)ccc1O [Ethyl_vanillin] | 1.53
8 | CC(C)c1cccc(C(C)CC=O)c1 (centres unmarked) [Florhydral] | 3.59
9 | CCC=C(C)C(O)CCCCC (centres unmarked) [Undecavertol] | 3.06
10 | CC(=O)/C=C/C1=C(C)CCCC1(C)C [beta-Ionone] | 4.02
11 | C=CC(C)CCCC(C)(C)O (centres unmarked) [Dihydromyrcenol] | 3.08
12 | CC(=O)OCCC(C)CCC=C(C)C (centres unmarked) [Citronellyl_acetate] | 3.7
13 | CCCCCCOC(C)=O [Hexyl_acetate] | 2.64
14 | CCCCCCCCCCCC#N [Lauronitrile] | 4.84
